One compound from PMC11063076, “Structural investigation of Trypanosoma cruzi Akt-like kinase as drug target against Chagas disease” (Scientific Reports, 2024) can be followed below.

This test has as its target T1, TcAkt (T. cruzi Akt-like kinase), PH domain (Trypanosoma cruzi, UniProt Q4D6D3).
T1 construct: gene Tc00.1047053509047.110; TcAkt-PH (aa 1–105), C-terminal 6xHis-tag
In words: NMR 1H-15N HSQC chemical shift perturbation titration; hetNOE. The format is binding.

T1 sequence (Q4D6D3 entry or part of it): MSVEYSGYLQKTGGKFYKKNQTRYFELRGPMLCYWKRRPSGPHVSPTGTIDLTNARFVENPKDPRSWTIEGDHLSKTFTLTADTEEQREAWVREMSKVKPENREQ

One may read the Kd as a measure of binding affinity in units of concentration. `O=P(O)(O)O[C@H]1[C@H](O)[C@@H](OP(=O)(O)O)[C@H](OP(=O)(O)O)[C@@H](OP(=O)(O)O)[C@H]1O` [Ins(1,3,4,5)P4]: the Kd stood at 40 ± 14 µM.
